Assay results from patent US20040259942A1, “Modulation of stat activity” (priority 2001, published 2004).

Tests used:
STAT1 and 3 = experiment: STAT complex formation in serum-starved cells treated with AHL alone (EMSA); type: cell-based, human; details: serum-starved BR293 cells; up to 2 h
Description: Cells were lysed and the DNA-binding activity of STAT1 and 3 was examined by EMSA.

MDA-MB-468 cells [1] = experiment: DAPI staining, confocal microscopy (apoptosis); type: cell-based, human; details: growing cells treated; 100 μM (FIG. 17)
Procedure: OdDHL induces apoptosis of BC cells (a) MCF-7 cells were cultured in full medium alone or in the presence of 1001M OdDHL or 100 μM OHHL. […] Left-hand panels show DAPI, right-hand panels show the corresponding phase contrast and middle panels the image overlays. (b) MDA-MB-468 cells were cultured in full medium alone or in the presence of 100 μM OdDHL or 100 μM OHHL. […] (c) BR293, MCF-7 and MDA-MD-468 cells were cultured in full medium alone (lanes 1, 3, 5) or in the presence of 100 μM OdDHL (lanes 2, 4, 6) or 400 μM etoposide (lane 7). After 18 hours cells were lysed and analysed for PARP cleavage by Western blotting with an anti-PARP antibody. Full length PARP is labelled and the lower arrow indicates the major caspase cleavage fragment.

Akt/PKB = Akt/PKB S473 phosphorylation in serum-stimulated cells (P13K survival pathway); type: cell-based, human; details: for Akt/PKB phosphorylation in serum-stimulated cells: BR293, MCF-7 and MDA-MB-468 cells, Wortmannin 200 nM, AHLs 100 μM
Procedure: Cell lysates were then prepared and analysed by Western blotting for Akt/PKB phosphorylation with an antibody specific for Akt/PKB phosphorylated on S473 (p-Akt, upper panel) and subsequently for total Akt/PKB content with an antibody for Akt/PKB (lower panel).
In the bottom section of FIG. 21, BR293 cells were serum-starved (lane 1) or starved and stimulated with 10% FCS for 2 hours alone (lane 2) or in the presence of increasing concentrations of OdDHL (lanes 3-6) or 100 μM OHHL (lane 7) or 200 nM Wortmannin (lane 8). Cell lysates were prepared and analysed by Western blotting for Akt/PKB phosphorylation with an antibody specific for Akt/PKB phosphorylated on S473 (upper panel) and subsequently for total Alt/PKB content with an antibody for Akt/PKB (lower panel).

p46/p54 JNK/SAPK = experiment: JNK/SAPK phosphorylation in anisomycin-treated cells (Western blotting); type: cell-based, human; details: BR293 cells treated with anisomycin
Procedure: ERKs are unaffected by OdDHL (a) BR293 cells were serum-starved (lane 1) or starved and stimulated with TPA for 30 min alone (lane 2) or in the presence of increasing concentrations of OdDHL (lanes 3-6) or 100 μM OHHL (lane 7). Cell lysates were prepared and analysed by Western blotting for ERK phosphorylation with an antibody specific for phospho-ERK½ (upper panel) and for ERK content with an antibody against ERKs (lower panel). (b) BR293 cells were serum-starved (lane 1) or starved and stimulated with Anisomycin for 30 min alone (lane 2) or in the presence of increasing concentrations of OdDHL (lanes 3-6) or 100 μM OHHL (lane 7). Cell lysates were prepared and analysed by Western blotting for JNK/SAPK phosphorylation with an antibody specific for phospho-JNKs (upper panel) and for SAPK/JNK content with an antibody against JNKs (lower panel). (c) BR293 cells were treated as described in (b) and lysates were analysed by Western blotting for p38^MAPK phosphorylation with an antibody specific for phospho-p38 (upper panel) and for p38 content with an antibody against p38 (lower panel).

MDA-MB-468 cells [2] = experiment: Cell proliferation assay (cell counting); type: cell-based, human; details: over a 48-hour period
Procedure: Equal numbers of BR293 and MDA-MB-468 cells were seeded in MEM containing 10% FCS into 10 cm dishes. […]. For the 48 time points, fresh medium containing the appropriate inhibitor was applied to the cells after 24 hours. Controls were allowed to grow for 48 hours in the absence of inhibitor. Thereafter, all the cells were washed twice with ice cold PBS, harvested and counted under a phase-contrast microscope. Values are expressed as averages+S.D. (n=3).
(§1) Equal numbers of BR293, MCF-10F, MCF-7, MDA-MB-468, HKEK293 and COS1 cells were seeded in the appropriate growth medium into 10 cm dishes. Cells were allowed to grow in the presence of various concentrations of OdDHL or OHHL for 24 or 48 hours. For the 48-hour time points, fresh medium containing the appropriate inhibitor was applied to the cells after 24 hours. Controls were allowed to grow for 48 hours in the absence of inhibitor. Thereafter, all the cells were washed twice with ice cold PBS, harvested and counted under a phase-contrast microscope. Values are expressed as averages ±S.D. (n=3).

MCF-10F cells = experiment: Cell proliferation assay (cell counting); type: cell-based, human; details: non-tumorigenic breast epithelial cells; 48 hours
Procedure: Breast cancer cell lines (BR293, MCF-7 and MDA-MB-468) were maintained in Minimum Essential Medium Eagle (MEM, Sigma) supplemented with 10% foetal calf serum (FCS), 1% MEM non-essential amino acids, 1% glutamine and 1% penicillin-streptomycin at 37° C. under 5% CO2. […] These cell lines are well-known, and widely available to persons in the field. In particular, the following lines are deposited with the American Type Culture Collection (ATTC) with the following identifying codes:
as §1

HEK293 cells = experiment: Cell proliferation assay (cell counting); type: cell-based, human; details: cells with constitutive STAT3 activity; 48 hours
Procedure: as §1

MCF-7 cells = experiment: Cell proliferation assay (cell counting); type: cell-based, human; details: over a 48-hour period
Procedure: as §1

[3] = test system: poly ADP-ribose polymerase (PARP); experiment: PARP cleavage by Western blotting; type: cell-based, human; details: 100 μM, 18 hours
Procedure: OdDHL induces apoptosis of BC cells (a) MCF-7 cells were cultured in full medium alone or in the presence of 1001M OdDHL or 100 μM OHHL. After 18 hours cells were fixed, stained with DAPI and examined by confocal microscopy. Left-hand panels show DAPI, right-hand panels show the corresponding phase contrast and middle panels the image overlays. (b) MDA-MB-468 cells were cultured in full medium alone or in the presence of 100 μM OdDHL or 100 μM OHHL. After 18 hours cells were fixed, stained and examined as in (a). (c) BR293, MCF-7 and MDA-MD-468 cells were cultured in full medium alone (lanes 1, 3, 5) or in the presence of 100 μM OdDHL (lanes 2, 4, 6) or 400 μM etoposide (lane 7). After 18 hours cells were lysed and analysed for PARP cleavage by Western blotting with an anti-PARP antibody. Full length PARP is labelled and the lower arrow indicates the major caspase cleavage fragment.

COS1 cells = experiment: Cell proliferation assay (cell counting); type: cell-based, simian; details: cells expressing low levels of STAT proteins; 48 hours
Procedure: as §1

Compound | STAT complex formation by AHL alone (STAT1 and 3) | nuclear integrity by DAPI staining (MDA-MB-468 cells [1]) | Akt/PKB phosphorylation in serum-stimulated cells (Akt/PKB) | p46/p54 JNK/SAPK phosphorylation (p46/p54 JNK/SAPK) | inhibition of proliferation (MDA-MB-468 cells [2]) | effect on proliferation (MCF-10F cells) | growth sensitivity to treatment (HEK293 cells) | inhibition of proliferation (MCF-7 cells) | effective concentration for blocking Akt/PKB phosphorylation (Akt/PKB; titration in BR293 cells) | PARP cleavage ([3]; BR293 cells) | PARP cleavage ([3]; MCF-7 cells) | PARP cleavage ([3]; MDA-MB-468 cells, compared with 400 μM etoposide) | effect on proliferation (COS1 cells)
CCCC(=O)CC(=O)N[C@H]1CCOC1=O [OHHL, N-(3-oxohexanoyl)-L-homoserine lactone, reference compound] | did not induce STAT complex formation | unaffected | had no effect | – | – | – | – | – | – | – | – | – | –
CCCCCCCCCC(=O)CC(=O)N[C@H]1CCOC1=O [OdDHL, N-(3-oxo-dodecanoyl)-L-homoserine lactone] | did not induce STAT complex formation | nuclear disruption | blocked phosphorylation of Akt/PKB to a similar degree as Wortmannin | modest but reproducible inhibition | 70%-80% | slight | sensitive | 70%-80% | above 50 μM | characteristic cleavage fragment was detected | induced PARP cleavage | to the same extent as etoposide | unaffected
